Laboratory results as given in ChEMBL document CHEMBL1201862, “PubChem BioAssay data set” (2004).
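Method: 48-hour compound exposure of cells in 96-well plates, five concentrations, linear interpolation of endpoints. GI50 marks 50% less growth.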 The source made the active and inactive calls. No stated cut-off is given here; in the data, active = GI50 up to about 1.1 µM and inactive = higher.

Legend:
Experiment in all cases: growth of human tumour cells (NCI), 48 h
786-0 = test system: 786-0
A498 = test system: A498
A549 = test system: A549
ACHN = test system: ACHN
CAKI-1 = test system: CAKI-1
COLO 205 = test system: COLO 205
DLD-1 = test system: DLD-1
DMS-114 = test system: DMS-114
DMS-273 = test system: DMS-273
EKVX = test system: EKVX
HCC 2998 = test system: HCC 2998
HCT-116 = test system: HCT-116
HCT-15 = test system: HCT-15
HL-60 = test system: HL-60
HOP-18 = test system: HOP-18
HOP-62 = test system: HOP-62
HOP-92 = test system: HOP-92
HT-29 = test system: HT-29
IGROV-1 = test system: IGROV-1
K562 = test system: K562
KM-20L2 = test system: KM-20L2
KM12 = test system: KM12
LOX IMVI = test system: LOX IMVI
LXFL 529 = test system: LXFL 529
M14 = test system: M14
M19-MEL = test system: M19-MEL
MOLT-4 = test system: MOLT-4
Malme-3M = test system: Malme-3M
NCI-H226 = test system: NCI-H226
NCI-H23 = test system: NCI-H23
NCI-H460 = test system: NCI-H460
NCI-H522 = test system: NCI-H522
OVCAR-3 = test system: OVCAR-3
OVCAR-4 = test system: OVCAR-4
OVCAR-5 = test system: OVCAR-5
OVCAR-8 = test system: OVCAR-8
RPMI-8226 = test system: RPMI-8226
RXF 393 = test system: RXF 393
RXF 631 = test system: RXF 631
SF-268 = test system: SF-268
SF-295 = test system: SF-295
SF-539 = test system: SF-539
SK-MEL-28 = test system: SK-MEL-28
SK-MEL-5 = test system: SK-MEL-5
SK-OV-3 = test system: SK-OV-3
SN12C = test system: SN12C
SNB-19 = test system: SNB-19
SNB-75 = test system: SNB-75
SNB-78 = test system: SNB-78
SR = test system: SR
SW-620 = test system: SW-620
TK-10 = test system: TK-10
U-251 = test system: U-251
UACC-257 = test system: UACC-257
UACC-62 = test system: UACC-62
UO-31 = test system: UO-31
XF498 = test system: XF498
CCRF-CEM = test system: CCRF-CEM
SK-MEL-2 = test system: SK-MEL-2

Measured: GI50

Cc1ccc(S(=O)OC2c3ccccc3Cc3ccccc32)cc1 (stereo not drawn)
19.9 µM: HCT-15
inactive: 786-0 21.7 µM | A498 21.9 µM | A549 27.3 µM | ACHN 22.4 µM | CAKI-1 17.3 µM | COLO 205 17.5 µM | DLD-1 22.9 µM | DMS-114 20.2 µM | DMS-273 17.5 µM | EKVX 18.6 µM | HCC 2998 19.1 µM | HCT-116 17.1 µM | HL-60 17.6 µM | HOP-18 24.8 µM | HOP-62 17.5 µM | HOP-92 17.2 µM | HT-29 32.1 µM | IGROV-1 21.6 µM | K562 17.7 µM | KM-20L2 19.9 µM | KM12 21.2 µM | LOX IMVI 14.4 µM | LXFL 529 16.4 µM | M14 18.6 µM | M19-MEL 21.1 µM | MOLT-4 19.2 µM | Malme-3M 13.1 µM | NCI-H226 18.5 µM | NCI-H23 18.6 µM | NCI-H460 22.3 µM | NCI-H522 13.9 µM | OVCAR-3 21.5 µM | OVCAR-4 17.8 µM | OVCAR-5 15.6 µM | OVCAR-8 15.6 µM | RPMI-8226 36.1 µM | RXF 393 13.3 µM | RXF 631 17.2 µM | SF-268 20.7 µM | SF-295 23.9 µM | SF-539 18.5 µM | SK-MEL-28 19.2 µM | SK-MEL-5 19.3 µM | SK-OV-3 19.5 µM | SN12C 20.3 µM | SNB-19 23.8 µM | SNB-75 17.9 µM | SNB-78 19.9 µM | SR 21.8 µM | SW-620 22.5 µM | TK-10 21.1 µM | U-251 27.6 µM | UACC-257 19.3 µM | UACC-62 17.7 µM | UO-31 18.3 µM | XF498 15.2 µM

CCCCC#C[I+]c1ccccc1
inactive: 786-0 15.5 µM | A498 31 µM | A549 17.8 µM | ACHN 17.2 µM | CAKI-1 14 µM | CCRF-CEM 4.97 µM | COLO 205 15.4 µM | DLD-1 19.5 µM | DMS-273 14.1 µM | EKVX 15.6 µM | HCC 2998 20.1 µM | HCT-116 16 µM | HL-60 15.4 µM | HOP-18 14.5 µM | HOP-62 21.5 µM | HOP-92 11.7 µM | HT-29 15.9 µM | IGROV-1 19.9 µM | K562 15.2 µM | KM-20L2 18.3 µM | KM12 14.2 µM | LOX IMVI 12.3 µM | LXFL 529 12.2 µM | M14 15.5 µM | M19-MEL 15.7 µM | MOLT-4 3.82 µM | Malme-3M 14.8 µM | NCI-H226 15.5 µM | NCI-H23 13.6 µM | NCI-H460 11.3 µM | NCI-H522 3.53 µM | OVCAR-3 16 µM | OVCAR-4 14.9 µM | OVCAR-5 14.8 µM | OVCAR-8 16.1 µM | RXF 393 20.1 µM | RXF 631 9.71 µM | SF-268 19.9 µM | SF-295 22.4 µM | SF-539 22.4 µM | SK-MEL-28 17 µM | SK-MEL-2 17.7 µM | SK-MEL-5 17.3 µM | SK-OV-3 16.4 µM | SN12C 14.5 µM | SNB-19 16.9 µM | SNB-75 15.6 µM | SNB-78 21.8 µM | SR 15.1 µM | TK-10 15.1 µM | U-251 16.2 µM | UACC-257 16.3 µM | UACC-62 17 µM | UO-31 16.4 µM | XF498 15.3 µM
8.28 µM: HCT-15
